Columns and labels:
FAS = FAS expression under high-glucose/high-insulin exposure, HepG2 (western blot); assay type: cell-based, human
Protocol: (§1) A 6-well plate was inoculated with HepG2 (ATCC, US), as a human hepatocyte line, and cultured until confluence in a DMEM medium containing 1% penicillin-streptomycin (Hyclone, US) and 10% fetal bovine serum (Hyclone, US) in a 5% CO2 incubator at 37° C. The medium containing 10% fetal bovine serum of the hepatocyte line grown to confluence was replaced by a medium not containing FBS. The cell line was additionally cultured for 18 hours and used as a sample for an experiment.
(§2) Sodium dodecyl sulfate-polyacrylamide gel electrophoresis (SDS-PAGE) was carried out by means of a gel electrophoresis device (Mighty Small SE 250, Hoefer Scientific Instruments, San Francisco) according to a method by Laemmli (UK, Nature 227, 680-685, 1970). […] Whether total protein contents in samples are the same is determined using anti-β-actin and anti-LaminA/C antibodies. Changes in protein expression amounts were determined by measuring the intensities of chemiluminescence signals on the blot by means of densitometry. […] Each lane was calculated using AlphaEase™ version 5.5 software and background intensity was removed from the calculated values. […]

MCP-1 mRNA = MCP-1 mRNA after LPS stimulation in RAW264.7 cells (real time PCR); assay type: cell-based, mouse; details: RAW264.7, 3 μM, 10 ng/ml LPS, 6 hours
Protocol: RAW264.7 cells cultured in 6-well plates were stabilized for 12 hours in a serum-free medium, and then exposed to 3 μM of MBX-2982 and 10 ng/ml of LPS. After 6 hours, RNA samples extracted with TRIZOL were reversely transcribed using a cDNA synthesis PCR kit to synthesize cDNAs. The cDNAs obtained through reverse transcription were used as a template, and primers for 5′ and 3′ flanking sequences of cDNAs to be amplified were as follows. Real time PCR (Mini-Opticon, Bio-Rad, US) was carried out and the expression levels of mRNA were investigated.
Inflammatory marker change results evaluated after LPS stimulation for RAW264.7 cells, which were derived from a mouse macrophage cell line, are illustrated in FIG. 18.

iNOS protein = iNOS protein expression after LPS stimulation in RAW264.7 cells (western blot); assay type: cell-based, mouse; details: RAW264.7, 3 μM, 10 ng/ml LPS, 6 hours
Protocol: RAW264.7 cells cultured in 6-well plates were stabilized for 12 hours in a serum-free medium, and then exposed to 3 μM of MBX-2982 and 10 ng/ml of LPS. After 6 hours, the cells were lysed in cytolysis buffer and voltexed. Centrifugation was conducted at 14,000 rpm and 4° C. for 20 minutes. A supernatant of the centrifuged solution was collected and then subjected to protein quantification by the Bradford assay. 15 μg of a protein thereof was electrophoresed on an SDS polyacrylamide gel, and then expression changes of iNOS and COX-2 proteins were measured by western blotting. Expression changes in triplicate experiments were measured with a densitometer and are shown as graphs.
As described above, RAW264.7 cells, which were derived from a mouse macrophage cell line, was subjected to LPS stimulation, and then inflammatory marker changes therein were evaluated. Results are illustrated in FIG. 17.

[1] = system: mouse liver tissue and hepatocyte line; assay: Summary statement: mouse liver tissue and hepatocyte line treated with the two GPR119 ligands; assay type: cell-based
[2] = system: non-alcoholic steatohepatitis (NASH) animal models induced by methionine-choline deficient diet; assay: NASH animal model induced by methionine-choline deficient diet; assay type: in vivo, C57BL/6J mice; details: MCD diet 4 weeks, 10 and 30 mg/kg oral
Text: A liver fibrosis-inducing diet in the present invention is a methionine and choline-deficient (MCD) diet. Six-week-old male C57BL/6J mice (Central Lab. Animal Inc., Seoul, Korea) were acclimated to an experimental environment for one week while being fed solid food, and then randomly divided into a control group and an experimental group for the MCD diet using a randomized block design. The animal groups were fed for 4 weeks, and thus, liver fibrosis animal models were established. Liver fibrosis development was determined according to blood biochemical and histochemical analysis methods. The mice were orally fed once a day for five days every week with a GPR119 ligand (10 mg/kg and 30 mg/kg), which was suspended in 40% PEG400, in combination with the MCD diet. After terminating the experiment, the experimental animals fasted for 12 hours or more. Subsequently, blood and liver samples were collected from the animals, which had been anesthetized with diethyl ether, and then washed with a 0.1 M phosphate buffered saline (pH 7.4), followed by being weighed. […] Serum Lactate dehydrogenase (LDH) from the experimental animals raised for 4 weeks was measured as follows. The serum LDH was measured using a commercially available measurement kit (Bio Clinical system). […] Steatosis, ballooning, and lobular inflammation were blindly assessed by pathologists.

SREBP-1c = SREBP-1c expression under high-glucose/high-insulin exposure, HepG2 (western blot); assay type: cell-based, human; details: 30 mM glucose, 200 nM insulin 24 hours, 1-3 μM ligand
Protocol: as §1, §2

**Q.** What does the source list for `CCc1cnc(N2CCC(c3nc(COc4ccc(-n5cnnn5)cc4)cs3)CC2)nc1` [MBX2982, 4-((4-(1H-tetrazol-1-yl)phenoxy)methyl)-2-(1-(5-ethylpyrimidin-2-yl)piperidin-4-yl)thiazole]?
**A.** FAS expression increased by high-glucose/high-insulin (FAS): inhibited; expression of MCP-1 mRNA (MCP-1 mRNA): decreased; expression of iNOS protein (iNOS protein): decreased; activity of SREBP-1c [1]: inhibited; expression of GPR119 [1]: increased; expression of acetyl CoA carboxylase (ACC) [1]: inhibited; expression of fatty acid synthase (FAS) [1]: inhibited; expression of stearoyl-CoA desaturase (SCD) [1]: inhibited; lobular inflammation (NAFLD activity score) [2]: inhibited; other markers (steatosis, ballooning, serum LDH) [2]: did not show significant changes; SREBP-1c and nuclear (active-type) SREBP-1C expression increased by high-glucose/high-insulin (SREBP-1c): completely inhibited

Source: patent US20190008864A1, “PHARMACEUTICAL COMPOSITION CONTAINING GPR119 LIGAND AS EFFECTIVE INGREDIENT FOR PREVENTING OR TREATING NON-ALCOHOLIC STEATOHEPATITIS” (PHARMEDIX.CO., LTD., priority 2014, published 2019)
